Patent publication US9327060B2 (CARDINAL HEALTH SWITZERLAND 515 GmbH, priority 2009, dated 2016)

Columns and labels:
[1] = Source text: Referring to FIG. 29, there is illustrated the cumulative in vivo drug release percentages from a reservoir eluting stent for each drug over a thirty day period. Curve 2902 represents the profile for cilostazol while curve 2904 represents the profile for sirolimus. FIG. 30 is a graphical representation of the amount of each drug, in micrograms, released in vivo. Curve 3002 represents the profile for cilostazol while curve 3004 represents the profile for sirolimus. The curves in the figures illustrate that both the drugs elute independently of each other with minimal or substantially no interaction. […] Since the amount of drug (by weight) is different for the drugs in their respective reservoirs, the total amount of drug released at thirty (30) days was higher for sirolimus as compared to cilostazol.
[2] = porcine drug elution PK study of the dual drug eluting coating; format: in vivo; settings: after eight (8) days of implantation; stent of FIG. 11 (sirolimus and cilostazol in one EVA/BMA layer, 100 μg BMA overcoat)
Source text: Another critical parameter for the performance of the thrombus resistance of a device coated with cilostazol is the duration of the drug release from the coating. This is of particular significance in the two weeks after device implantation. In the porcine drug elution PK studies of the dual drug eluting coating, both cilostazol and sirolimus were slowly released from the coating, resulting in a sustained drug release profile. The purpose of the porcine PK study is to assess the local pharmacokinetics of a drug eluting stent at a given implantation time. Normally three stents are implanted in three different coronary arteries in a pig for a given time point and then retrieved for total drug recovery analysis. The stents are retrieved at predetermined time points; namely, 1, 3 and 8 days. The stents are extracted and the total amount of drug remaining on the stents is determined by analysis utilizing HPLC (high performance liquid chromatography) for total drug amount. The difference between the original amount of drug on the stent and the amount of drug retrieved at a given time represents the amount of drug released in that period. The continuous release of drug into surrounding arterial tissue is what prevents the neointimal growth and restenosis in the coronary artery. A normal plot represents the percentage of total drug released (%, y-axis) vs. time of implantation (day, x-axis). […]

[3] = system: platelet deposition and thrombus formation on the stent surface; assay: in vitro bovine blood loop model; settings: sirolimus/cilostazol combination coatings, FIG. 8
Source text: The anti-thrombotic efficacy of the above-described three configurations is illustrated in FIG. 8. FIG. 8 illustrates the anti-thrombotic properties of the sirolimus/cilostazol combination coatings described above in an in vitro bovine blood loop model. In the in vitro bovine blood loop model, fresh bovine blood is heparinized to adjust for […] (ACT) of about two hundred (200) seconds. The platelet content in the blood is labeled through the use of Indium 111. In the study, a stent is deployed in a silicone tube, which is part of a closed loop system for blood circulation. The heparinzed blood is circulated through the closed loop system by means of a circulating pump. Blood clots and thrombus builds up on a stent surface over time and reduces the flow rate of blood through the stented loop. The flow is stopped when the flow rate is reduced to fifty (50) percent of the starting value or at ninety (90) minutes if none of the tested stent reduces the flow by fifty (50) percent. The total radioactivity (In 111) on the stent surface is counted by a […] and normalized with the control unit, set as one hundred (100) percent in the chart. […]

[4] = in vitro release kinetics of sirolimus and cilostazol from coated stent; format: physicochemical; settings: stent of FIG. 11 (sirolimus and cilostazol in one EVA/BMA layer, 100 μg BMA overcoat); FIG. 10

| Compound | cumulative in vivo elution [1] | drug remained in the drug coating [2] [%] | thrombus formation [3] | in vitro release [4] [%] |
| --- | --- | --- | --- | --- |
| CO[C@H]1C[C@@H]2CC[C@@H](C)[C@@](O)(O2)C(=O)C(=O)N2CCCC[C@H]2C(=O)O[C@H]([C@H](C)C[C@@H]2CC[C@@H](O)[C@H](OC)C2)CC(=O)[C@H](C)/C=C(\C)[C@@H](O)[C@@H](OC)C(=O)[C@H](C)C[C@H](C)/C=C/C=C/C=C/1C [Rapamycin] | sixty (60) to seventy (70) | ~80 | – | – |
| O=C1CCc2cc(OCCCCc3nnnn3C3CCCCC3)ccc2N1 [cilostazol, 6[4-(1-cyclohexyl-1H-tetrazol-5-yl)-butoxy]-3,4-dihydro-2-(1H)-quinolinone] | sixty (60) to seventy (70) | ~80 | significantly reduces thrombus formation | ~35 |
